According to US12116421B2, “Peptide-based Dopa containing adhesive gels” (KING ABDULLAH UNIVERSITY OF SCIENCE AND TECHNOLOGY, priority 2020, dated 2024):
Where a SMILES comes first, the peptide text is derived from it. [ ]: non-standard residue; d: D form. Dopa = N[C@@H](Cc1ccc(O)c(O)c1)C(=O)O; Cha = N[C@@H](CC1CCCCC1)C(=O)O

Assays:
[1] = AFM topography of peptide nanofibres; format: physicochemical; conditions: 13 mM in MilliQ water
Experimental: In one embodiment, DoIIZK and IIZKDo form nice long and twisted fibers whereas, but IIZDoK peptide performs scarcely even at the concentration of 10 mg/mL. The photos in FIG. 11 has a scalebar of 200 nm, while the photos in FIG. 12 has a scalebar of 400 nm. The peptides shown in FIGS. 11 and 12 are dissolved in MilliQ® water at the concentration of 13 mM. According to the AFM photos in FIGS. 15 and 16 and 3D plot shown in FIG. 11, peptides DoIIZK, IIZDoK and IIZKDo show the following structural properties: • DoIIZK: helical pitch of 24.75±1.46 nm; maximum diametre 1.01±0.14 nm; minimum diametre: 0.66±0.09 nm. • IIZDoK: helical pitch of 8.63±0.49 nm; maximum diametre 1.66±0.19 nm; minimum diametre: 1.16±0.17 nm. • IIZKDo: helical pitch of 24.21±1.24 nm; maximum diametre 3.87±0.28 nm; minimum diametre: 3.09±0.16 nm.
AFM topography measurements were performed on a Dimension Icon SPM (Bruker®). The samples were prepared as follows: peptides were dissolved at 13 mM concentration in MilliQ® water; after 30 minutes, 20 μl of these solutions were dropped on freshly cleaved mica sheets and immediately dried with an N2 stream. Measurements were immediately performed in tapping mode in air by the use of an AFM probe AC_240TS_R3 (Olympus®) with nominal free oscillation at roughly 70 kHz and a nominal spring constant of 2 N/m. The probe was calibrated by contact-free method.^54 Free oscillation amplitude was set at 200 mV with a 5% damping during tapping mode measurement. AFM adhesion measurements were performed on a JPK Nanowizard™ III mounted on Olympus® IX-81 inverted optical microscope. A mica sheet was glued one day before the experiment with double component epoxy glue to a glass slide and enclosed in a plastic o-ring provided by the JPK company for liquid measurements. Each peptide was dissolved in MilliQ® water at a concentration of 13 mM and mixed gently. Starting with the measurement in MilliQ® water, 50 μL of the solution were dropped on the freshly cleaved mica sheet within 5 minutes from the preparation of the solution and let equilibrate for 10 minutes. After, the excess solution was removed by pipetting and discarded. Then 1 mL of MilliQ® water was added gently from the side and after 5 minutes, the sample was rinsed 3 times by additional 1 mL MilliQ® water. Finally, the sample was measured by AFM force spectroscopy (Quantitative imaging mode) with additional 1 mL MilliQ® water. The MilliQ® water was exchanged after the measurement alternatively with a water solution containing 137 mM NaCl or 10 mM Phosphate ions (a combination of Na2HPO4·7H2O and NaH2PO4·H2O to reach pH 7.4). After performing the force spectroscopy map in these two different solutions, eventually, the liquid was exchanged with 1×PBS pH 7.4. To verify the presence of eventual fibers, after the measurement, the excess solution was removed by pipetting and discarded. The sample was then rinsed two times with 1 mL MilliQ® water and dried overnight in a vacuum chamber. The topography AFM imaging was performed using AC-240TS_R3 AFM probes in tapping mode in the JPK AFM.

[2] = Rheology of peptide hydrogels (storage and loss modulus); format: physicochemical; conditions: 15 mg/mL in 1×PBS
Experimental: In one embodiment, the structural characteristics of these peptides also influence the rheological properties of the peptides, such as stiffness. The stiffness of the peptide hydrogels was assessed by rheology measurements. The five peptides, DoIIZK, IIZDoK, IIZKDo, IIZ(KDo)2 and IIZ(KDo)3 were dispersed in phosphate-buffered saline (1×PBS) to final concentrations of […]. Only DoIIZK and IIZKDo formed transparent hydrogels after preparation of gels onto rheology glass rings; the rest of the peptides formed grey/opaque hydrogels. This difference implies that the fibrils of peptides DoIIZK and IIZKDo had sufficient time to disperse and spread in solution before entrapping water to gel, while peptides IIZDoK, IIZ(KDo)2 and IIZ(KDo)3 gelled quickly upon fibril formation. Therefore, the rheological properties of the peptides were measured at the concentration of 15 mg/ml. […] The storage modulus and loss modulus reflect the stress response of the hydrogel in oscillatory shear. […]
Peptide hydrogels were prepared by weighing the appropriate peptide amount of the lyophilized peptide powder in 2 mL glass-vials. […] Rheological analysis mechanical properties of the formed gels were assessed by using the TA Ares-G2 Rheometer with an 8 mm titanium parallel-plate geometry. […] Time-sweep, frequency-sweep, and amplitude-sweep, were measured for each sample to explore the mechanical stiffness of the gels. […]

Structure (SMILES)	helical pitch [1]	maximum diametre [1]	minimum diametre [1]	Storage and Loss moduli, times lower than DoIIZK and IIZKDo [2]	Storage modulus ([2]; 25° C.)
CC[C@H](C)[C@H](NC(C)=O)C(=O)N[C@H](C(=O)N[C@@H](CC1CCCCC1)C(=O)N[C@@H](CCCCN)C(=O)N[C@@H](Cc1ccc(O)c(O)c1)C(N)=O)[C@@H](C)CC [IIZKDo, Ac-Ile-Ile-Cha-Lys-Dopa-NH2] (Ac-II[Cha]K[Dopa]-NH2)	24.21±1.24 nm	3.87±0.28 nm	3.09±0.16 nm	–	–
CC[C@H](C)[C@H](NC(=O)[C@H](Cc1ccc(O)c(O)c1)NC(C)=O)C(=O)N[C@H](C(=O)N[C@@H](CC1CCCCC1)C(=O)N[C@@H](CCCCN)C(N)=O)[C@@H](C)CC [DoIIZK, Ac-Dopa-Ile-Ile-Cha-Lys-NH2] (Ac-[Dopa]II[Cha]K-NH2)	24.75±1.46 nm	1.01±0.14 nm	0.66±0.09 nm	–	–
CC[C@H](C)[C@H](NC(C)=O)C(=O)N[C@H](C(=O)N[C@@H](CC1CCCCC1)C(=O)N[C@@H](Cc1ccc(O)c(O)c1)C(=O)N[C@@H](CCCCN)C(N)=O)[C@@H](C)CC [IIZDoK, Ac-Ile-Ile-Cha-Dopa-Lys-NH2] (Ac-II[Cha][Dopa]K-NH2)	8.63±0.49 nm	1.66±0.19 nm	1.16±0.17 nm	roughly 10 times	2-5 kPa
